One compound from patent publication US7510825B2, “Kits and methods for detection of apoptotic cells” (NST NeuroSurvival Technologies Ltd, priority 2000, dated 2009) can be followed below.

The assay deals with Jurkat cells (T-cell leukemia). The assay can be described thus: Binding of DDC and PI to Jurkat cells treated with CD95, confocal microscopy. The assay is classed as cell-based, human. Conditions: CD95 for 180 minutes; confocal microscope. As for the experimental part: For microscopic analysis the concentration of cells should be within 1-2×10^7/ml. […] If fixation is needed, it should be performed after DDC staining. • 1. Adjusting the cells to 1-2×10^7/ml in buffer. • 2. Transferring 96 μl from the cell suspension to an eppendorf and staining the cells by adding 4 μl from the DDC solution. Incubating for 10-40 minutes at RT protected from light. • 3. A double labeling could be conducted with PI, if desired. In such a case, 1 μl is added from the PI solution. • 4, Placing the cell suspension on a glass slide. Covering the cells with a glass coverslip. Alternatively, for analyzing adherent cells, cells may grow directly on coverslip. Staining the cells by incubation with DDC (4 μl of DDC/96 μl buffer reaction) or 10-40 minutes and PI (1 μl). […] Observing the cells under fluorescent or confocal microscope equipped with the appropriate UV filter (excitation at 360-370 nm, band pass, and emission at 420 nm, barrier filter. Using a Triple filter (Hoechst/FITC/Texas Red) allows concomitant observation of both DDC and PI. Quantitative Assay for DDC Accumulation using Fluorescene Spectroscopy
Jurkat cells (T-cell leukemia) were treated with CD95 for 180 minutes and incubated with DDC followed by incubation with Propidium Iodide (PI) as detailed in DDC protocols IIIC. The cells were analyzed under fluorescent confocal microscope using a UV filter. […]

SMILES strings stand for the structures.

With `CC[N+](C)(CC)CCC[n+]1c(-c2ccccc2)c2cc(N)ccc2c2ccc(N)cc21.[I-].[I-]` [PI, Propidium Iodide, reference compound], the “cellular staining pattern in apoptotic cells” value is “Nuclear staining by PI can be seen only in late apoptotic cells”.
